Measured values published in US7175991B2, “Method of measuring binding site on plasma protein of plasma protein-binding drug and method of measuring plasma protein mutation” (Nihon Medi-Physics Co., Ltd., priority 2002, dated 2007).
Read-outs that look alike come from different tables or passages of the source.

Experiments:
HSA Site I [1] = target: T1, HSA Site I (Homo sapiens, UniProt P02768); test: Four-nuclide simultaneous measurement, human serum 2 (AGP variant): displacement of ^99mTcO4^-
Text: (§1) In addition, the possibility of monitoring the protein binding displacement effect of a drug in the serum was examined.

AGP Site A and B [2] = test: Four-nuclide simultaneous measurement, human serum 2 (AGP variant): displacement of ^3H-PPL
Text: as §1

HSA Site II and AGP [3] = test: Four-nuclide simultaneous measurement, human serum 2 (AGP variant): displacement of ^125I-IMP
Text: as §1

HSA Site I [4] = target: T1, HSA Site I; conditions: human serum 1; added drug 400 μM
HSA Site I [5] = target: T1, HSA Site I; test: Four-nuclide simultaneous measurement, human serum 1: displacement of ^99mTcO4^-; conditions: human serum 1, four nuclides
HSA Site I [6] = target: T1, HSA Site I; conditions: 400 μM, pH 7.4
HSA Site II = HSA Site II (Homo sapiens, UniProt P02768); conditions: for Change ratio (time) of ^14C-DZP free drug ratio / Free drug ratio (%) of ^14C-DZP: human, 400 μM, pH 7.4
Sequence of HSA Site II (P02768 25-609): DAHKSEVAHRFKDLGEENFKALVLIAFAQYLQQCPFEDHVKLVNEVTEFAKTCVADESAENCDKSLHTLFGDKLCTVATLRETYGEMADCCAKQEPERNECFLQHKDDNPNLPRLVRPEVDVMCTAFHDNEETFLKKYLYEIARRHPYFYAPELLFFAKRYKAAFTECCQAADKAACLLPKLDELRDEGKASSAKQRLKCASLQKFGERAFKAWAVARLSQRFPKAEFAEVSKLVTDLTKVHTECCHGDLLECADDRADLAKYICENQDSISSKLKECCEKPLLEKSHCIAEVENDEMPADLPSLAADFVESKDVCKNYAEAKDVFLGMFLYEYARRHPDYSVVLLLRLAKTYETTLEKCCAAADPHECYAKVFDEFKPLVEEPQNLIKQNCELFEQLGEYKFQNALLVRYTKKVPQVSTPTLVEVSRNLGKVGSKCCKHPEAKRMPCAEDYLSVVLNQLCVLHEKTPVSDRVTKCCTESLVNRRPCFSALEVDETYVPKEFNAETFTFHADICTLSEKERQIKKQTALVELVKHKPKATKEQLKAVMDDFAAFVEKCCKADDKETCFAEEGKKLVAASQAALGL

AGP Site A and B [7] = conditions: for Change ratio (time) of ^3H-PPL free drug ratio / Free drug ratio (%) of ^3H-PPL: human, 400 μM, pH 7.4
HSA Site II and AGP [8] = conditions: human, 400 μM, pH 7.4
HSA Site I [9] = target: T1, HSA Site I; test: Table 6, two-nuclide simultaneous measure, human pooled serum: column headed ^99mTcO4^-; conditions: physiological saline instead of displacement drug
plasma protein = conditions: used in the concentration of a diagnostic agent; cited from earlier work
HSA Site II and AGP [10] = test: Four-nuclide simultaneous measurement, human serum 1: displacement of ^125I-IMP; conditions: human serum 1, four nuclides
HSA Site II and AGP [11] = test: Table 6, two-nuclide simultaneous measure, human pooled serum: column headed ^125I-IMP; conditions: physiological saline instead of displacement drug
[12] = physiological saline control (Table 8)
[13] = physiological saline instead of drug (Table 7)
[14] = physiological saline instead of displacement drug (Table 5)
[15] = physiological saline instead of drug (Table 4)

T1 sequence (P02768 25-609): as above

CCCCC1C(=O)NC(=O)N(C2CCCCC2)C1=O (stereo not shown) [BCL, bucolome]
Displacement effect on ^99mTcO4^-, in words (HSA Site I [1]): significant displacement effect
Effect on binding of ^3H-PPL, in words (AGP Site A and B [2]; human serum 2 (AGP variant)): increased
Effect on binding of ^125I-IMP, in words (HSA Site II and AGP [3]): increased
Displacement effect on ^14C-WRF, in words (HSA Site I [4]): significant displacement effect
Displacement effect on drug with affinity to site I of HSA (^99mTcO4^-), in words (HSA Site I [5]): significant displacement effect

CC[C@H]1OC(=O)[C@H](C)[C@@H](O[C@H]2C[C@@](C)(OC)[C@@H](O)[C@H](C)O2)[C@H](C)[C@@H](O[C@@H]2O[C@H](C)C[C@H](N(C)C)[C@H]2O)[C@](C)(O)C[C@@H](C)C(=O)[C@H](C)[C@@H](O)[C@]1(C)O [ETM, erythromycin]
Change ratio (time) of ^99mTcO4^- free drug ratio (HSA Site I [6]): 0.99 time
Free drug ratio (%) of ^99mTcO4^- (HSA Site I [6]): 0.88%
Change ratio (time) of ^14C-DZP free drug ratio (HSA Site II): 1.04 time
Free drug ratio (%) of ^14C-DZP (HSA Site II): 2.67%
Effect on free drug with affinity to AGP, in words (AGP Site A and B [7]): effective displacement drug
Change ratio (time) of ^3H-PPL free drug ratio (AGP Site A and B [7]): 1.93 time
Free drug ratio (%) of ^3H-PPL (AGP Site A and B [7]): 23.79%
Change ratio (time) of ^125I-IMP free drug ratio (HSA Site II and AGP [8]): 1.61 time
Free drug ratio (%) of ^125I-IMP (HSA Site II and AGP [8]): 54.78%

CC(C)Cc1ccc(C(C)C(=O)O)cc1 (stereo not shown) [IPF, ibuprofen]
Effect on binding of ^3H-PPL, in words (AGP Site A and B [2]): increased

CC(=O)N[C@@H](Cc1c[nH]c2ccccc12)C(=O)O [NAT, N-acetyltryptophan]
Change ratio (time) of ^99mTcO4^- free drug ratio (HSA Site I [6]): 1.07 time
Free drug ratio (%) of ^99mTcO4^- (HSA Site I [6]): 0.97%
Effect on free drug with affinity to site II of HSA, in words (HSA Site II): effective displacement drug
Change ratio (time) of ^14C-DZP free drug ratio (HSA Site II): 1.21 time
Free drug ratio (%) of ^14C-DZP (HSA Site II): 3.08%
Effect on free drug with affinity to AGP, in words (AGP Site A and B [7]): effect to reduce the concentration to some extent
Change ratio (time) of ^3H-PPL free drug ratio (AGP Site A and B [7]): 0.94 time
Free drug ratio (%) of ^3H-PPL (AGP Site A and B [7]): 11.54%
Change ratio (time) of ^125I-IMP free drug ratio (HSA Site II and AGP [8]): 1.01 time
Free drug ratio (%) of ^125I-IMP (HSA Site II and AGP [8]): 34.19%

N[C@@H](Cc1c[nH]c2ccccc12)C(=O)O [Trp, tryptophan]
Change ratio (time) of ^99mTcO4^- free drug ratio (HSA Site I [6]): 1.08 time
Change ratio (time) of ^14C-DZP free drug ratio (HSA Site II): 2.25 time
Change ratio (time) of ^3H-PPL free drug ratio (AGP Site A and B [7]): 1.01 time
Change ratio (time) of ^125I-IMP free drug ratio (HSA Site II and AGP [8]): 0.94 time

[O]=[99Tc](=[O])(=[O])[O-] [^99 mTcO4^-, Pertechnetium acid]
Free drug ratio of control (%), ^99mTcO4^- (HSA Site I [1]; [12]): 21.08%
Free drug ratio of control (%), ^99mTcO4^- (HSA Site I [1]; [13]): 21.08%
Free drug ratio of control (%), ^99mTcO4^- (HSA Site I [5]; [14]): 21.07%
Free drug ratio of control (%), ^99mTcO4^- (HSA Site I [5]; [15]): 21.07%
Free drug ratio of control (%), ^99mTcO4^- (HSA Site I [9]): 0.90%

O=C([O-])CN=C([O-])CN=C([O-])CN=C([O-])C[S-].[O-2].[Tc+4] [^99mTc-MAG3, 99m-technetium labeled mercaptoacetylglycylglycylglycine]
Binding to plasma protein (plasma protein): about 90%

CC(C)NC(C)Cc1ccc([125I])cc1 (stereo not shown) [^125I-IMP]
Free drug ratio of control (%), ^125I-IMP (HSA Site II and AGP [3]; [12]): 27.23%
Free drug ratio of control (%), ^125I-IMP (HSA Site II and AGP [3]; [13]): 27.23%
Free drug ratio of control (%), ^125I-IMP (HSA Site II and AGP [10]; [14]): 23.40%
Free drug ratio of control (%), ^125I-IMP (HSA Site II and AGP [10]; [15]): 23.40%
Free drug ratio of control (%), ^125I-IMP (HSA Site II and AGP [11]): 33.98%
